Data taken from patent US4859669A, “Antiinflammatory and anti-hyperproliferative naphthyridin-4-ones” (Schering Corporation, priority 1987, dated 1989).
Where two headings read alike, the source gives them in different places.

Key:
[1] = biological target: T1, 5-lipoxygenase (Rattus norvegicus, UniProt P12527); test: Lipoxygenase assay: arachidonic acid metabolism in rat neutrophils; format: cell-based; settings: compound 5×10^-5 Molar
T1 construct: endogenous in cells; host or cells: neutrophils isolated from the pleural exudate of male Wistar-Lewis rats (given "Witar-Lewis" in the source) after BSA / anti-BSA challenge
T1 sequence (P12527 1-673): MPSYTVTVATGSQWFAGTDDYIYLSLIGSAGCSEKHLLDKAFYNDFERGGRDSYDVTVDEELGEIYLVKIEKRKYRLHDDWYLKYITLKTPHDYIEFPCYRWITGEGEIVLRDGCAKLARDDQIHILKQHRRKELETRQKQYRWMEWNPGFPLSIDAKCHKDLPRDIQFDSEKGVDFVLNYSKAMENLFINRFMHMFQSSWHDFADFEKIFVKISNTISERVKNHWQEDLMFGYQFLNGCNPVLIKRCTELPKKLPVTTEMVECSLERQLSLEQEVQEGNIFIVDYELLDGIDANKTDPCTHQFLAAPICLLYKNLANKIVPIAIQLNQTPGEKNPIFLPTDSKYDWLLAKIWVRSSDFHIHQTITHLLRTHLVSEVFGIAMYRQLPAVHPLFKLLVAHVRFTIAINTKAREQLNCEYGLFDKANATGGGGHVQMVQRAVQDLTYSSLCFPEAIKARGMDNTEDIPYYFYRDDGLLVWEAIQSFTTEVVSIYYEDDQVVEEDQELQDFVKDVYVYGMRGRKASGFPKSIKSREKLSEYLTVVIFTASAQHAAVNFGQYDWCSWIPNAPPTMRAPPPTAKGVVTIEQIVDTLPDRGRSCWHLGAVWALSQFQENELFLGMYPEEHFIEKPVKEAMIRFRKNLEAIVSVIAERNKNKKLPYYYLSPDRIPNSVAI
Experimental: The effect of the compounds of the invention on 5-lipoxygenase activity is determined using rat neutrophils. Male Witar-Lewis rats are injected intravenously with 5 mg BSA in 0.2 ml pyrogen free saline followed by an intrapleural injection of 500 ug of the IgG fraction of rabbit anti-BSA (Cappel Labs., Lot 17782) in 0.2 ml pyrogen free saline. Injections are made under light ether anesthesia. Four hours later, the pleural cavity exudate consisting of 85 to 95% neutrophils is removed. Neutrophils are isolated from the pleural exudates by centrifugation of 4° C. for 10 min at 200× g. The cell pellet is resuspended in 17 mM Tris is HCl buffer, pH 7.2, containing 0.75% NH4 Cl to lyse contaminating erythrocytes followed by centrifugation at 4° C. for 5 min at 200× g. The pelleted neutrophils are rewashed in 50 mM Tris HCl, pH 7.4, containing 100 mM NaCl, followed by the same centrifugation. The cell pellet is resuspended in 50 mM Tris HCl, pH 7.4, containing 100 mM NaCl and 1 mM CaCl2, at 3-12×10^7 intact neutrophils per ml.
Solutions of compounds in methanol are dried, then resuspended in the cell suspension for 4 min. Arachidonic acid methabolism is determined by incubating 0.1 ml of this suspension with 40 μM [1-^14 C] arachidonic acid (AA) (Amersham, 59 Ci/mole), in the presence of 0.1% BRIJ 56 and 10 μM A23187. Arachidonic acid metabolism as well as the various drug and reagent abbreviations are described in detail in Arch. Dermatol, Vol. 119, pages 541 to 547 (July 1983), the teachings of which are incorporated herein by reference. Assays run in triplicate are initiated by adding cells with inhibitor to a film of the BRIJ 56, arachidonic acid and A23187 37° C. After one minute, reactions are terminated by the addition of 2.4 ml of a chloroform:methanol (1:1 v/v) mixture and 0.9 ml of 0.1% formic acid. […] Products, leukotriene B4 (LTB4), 12-hydroxy heptadecatrienoic acid (HHT) and 5-hydroxy icosatetraenoic acid (5-HETE), are located by autoradiography and appropriate regions of the thin layer plates are scraped and counted in a liquid scintillation counter. […]

[2] = system: Male Lewis inbred albino rats; test: Reversed passive Arthus reaction (RPAR), rat paw volume; format: in vivo; settings: po, 1 h, dosed one hour prior to sensitization with BSA
Experimental: REVERSED PASSIVE ARTHUS REACTION (RPAR) ANIMALS, MATERIALS AND METHODS
Male Lewis inbred albino rats weighting 180-220 grams obtained from Charles River Breeding Laboratories are used in these experiments. The rats are housed 3 animals/cage and food and water are allowed ad libitum. The animals are numbered 1-3 in each cage and color marked for identification purposes.
All reagents and drugs are prepared just prior to the study. Crystallized and lyophilized bovine serum albumin (BSA), obtained from Sigma Chemical Company, is solubilized without shaking in cold sterile pyrogen free saline (10 mg/ml). Lyophilized anti-bovine serum albumin (IgG Fraction), obtained from Cappel Laboratories, is suspended in sterile distilled water and diluted with cold pyrogen free saline (PFS) just prior to use. The final concentration of anti-bovine serum albumin is 0.5 mg/ml of PFS. Both BSA and anti-BSA solutions are iced during use. Drugs are suspended or solubilized in an aqueous solution of methyl cellulose (MC) with a homogenizer just prior to administration.
Groups of animals (6/group) are dosed with drug in MC by gavage one hour prior to sensitization with BSA. […] The volume of mercury displaced is converted to weight and recorded. […] Paw volumes are also recorded with a plethysmograph during the development of the inflammation at 2 and 4 hours post-challenge.

[3] = system: pleural cavity of rats; test: Reverse passive Arthus reaction in the pleural cavity of rats (Myers et al.); format: in vivo; settings: po; rat
Excerpt: Another procedure for testing for acute antiinflammatory activity measures the reverse passive Arthus reaction in the pleural cavity of rats as described in Myers et al., Inflammation, Vol. 9, No. 1, 1985, pp. 91-98.

inhibition at 50 µM ([1]; read-out: inhibition of HETE production)	inhibition at 50 µM ([1]; read-out: inhibition of HHT production)	inhibition at 50 µM ([1]; read-out: inhibition of LTB4 production)	Compound	ED50 [2]	ED50 [3]
60%	~40%	60%	O=c1c2c(c3cccnc3n1-c1ccccc1)N(c1ccccc1)CC2 [1,2,3,5-tetrahydro-1,5-diphenyl-4H-pyrrolo[3,2-c][1,8]napthyridin-4-one]	–	–
–	–	–	O=c1c2c(c3cccnc3n1-c1ccccc1)NCC2 [1,2,3,5-tetrahydro-5-phenyl-4H-pyrrolo[3,2-c][1,8]naphthyridin-4-one]	~25 mg/kg	< 25 mg/kg
–	–	–	CCOC(=O)N1CCc2c1c1cccnc1n(-c1ccccc1)c2=O [2,3,4,5-tetrahydro-4-oxo-5-phenyl-1H-pyrrolo[3,2-c][1,8]napthyridine-1-carboxylic acid, ethyl ester]	–	~25 mg/kg
